Measurements taken from PubChem BioAssay (NCI).
“And” between values parts separate entries of the source, which are not always exact repeats. Equal entries are not always repeated.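 These data come from cells grown in 96-well plates and exposed to compound for 48 hours at five concentrations. At the GI50, growth is halved. TGI is the concentration that stops growth completely.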

Experiments:
Assay in all cases: NCI tumour cell line growth inhibition, 48 h
HOP-18 NSCLC = test system: HOP-18 NSCLC
DMS 273 small cell lung = test system: DMS 273 small cell lung
LXFL 529 NSCLC = test system: LXFL 529 NSCLC
XF 498 CNS = test system: XF 498 CNS
SNB-78 CNS = test system: SNB-78 CNS
DLD-1 colon = test system: DLD-1 colon
DMS 114 small cell lung = test system: DMS 114 small cell lung
RXF-631 renal = test system: RXF-631 renal
MDA-N = test system: MDA-N
P388 leukemia = test system: P388 leukemia
SN12K1 renal = test system: SN12K1 renal

Row | SMILES | TGI (HOP-18 NSCLC) [µM] | TGI (DMS 273 small cell lung) [µM] | TGI (LXFL 529 NSCLC) | TGI (XF 498 CNS) | TGI (SNB-78 CNS) | TGI (DLD-1 colon) [µM] | TGI (DMS 114 small cell lung) | TGI (RXF-631 renal) [µM] | further results
1 | CCN(CC)CCOc1ccc(/C=C(\C#N)c2ccc(OCCN(CC)CC)cc2)cc1 | 57.3 | 26.5 | 41.3 µM | 29.3 µM | > 87.5 µM | > 83.3 | 23.2 µM |  | 
2 | Cc1ccccc1N1C(=O)/C(=C/c2ccc(N(CCC#N)CCC#N)cc2)N=C1c1cc([N+](=O)[O-])ccc1Cl | > 100 | > 100 | > 100 µM |  | > 100 µM | > 100 | > 100 µM | > 100 | 
3 | O=C1CCCC/C(=C/c2ccccc2)N1 | > 100 | > 100 | > 100 µM | > 100 µM | > 100 µM | > 100 | > 100 µM |  | 
4 | O=C(CCCn1ccnc1[N+](=O)[O-])NCCn1cncc1[N+](=O)[O-] |  |  |  |  |  |  |  |  | TGI (MDA-N): > 100 µM
5 | O=c1nc2occc2cn1C1CC(O)C(CO)O1 (configuration not stated) | > 100 | > 100 | > 100 µM | > 100 µM | > 100 µM | > 100 | > 100 µM | > 100 | 
6 | COC(=O)C(C(=O)C(=O)Nc1cccc(OC)c1)c1cnc2ccccc2n1 (configuration not stated) | > 100 | > 100 | > 100 µM | > 100 µM | > 100 µM | > 100 | > 100 µM | > 100 | 
7 | COC(=O)C1=C(C)N(NC(=O)c2ccccc2)C(C)(O)C12CCOC2=O (configuration not stated) | > 100 | > 100 | > 100 µM | > 100 µM | > 100 µM | > 100 | > 100 µM |  | 
8 | CC(O)C(N=Cc1ccccc1[O-])C(=O)[O-].CC(O)C(N=Cc1ccccc1[O-])C(=O)[O-].[Co+2] (configuration not stated) | > 100 |  |  | > 100 µM | > 100 µM | > 100 |  | > 100 | GI50 (HOP-18 NSCLC): 70.8 µM; GI50 (XF 498 CNS): > 100 µM; GI50 (SNB-78 CNS): > 100 µM; GI50 (DLD-1 colon): 83.7 µM; GI50 (RXF-631 renal): > 100 µM
9 | CC1=Nc2ccccc2C1C(Cc1ccccc1N)c1c(C)[nH]c2ccccc12 (configuration not stated) | 24.8 |  | 32.2 µM | 32.5 µM |  | 35.4 | 33.5 µM | 44.4 | 
10 | O=c1n(CC2CO2)c(=O)n(CC2CO2)c(=O)n1CC1CO1 (configuration not stated) | 202 | 51.4 |  |  | 199 µM | 143 | 70.9 µM |  | TGI (P388 leukemia): 122 µM; TGI (SN12K1 renal): 174 µM; GI50 (MDA-N): 26.5 µM; TGI (MDA-N): 72 µM and 82.6 µM
11 | CC1OC(n2cc(F)c(=O)[nH]c2=O)C=CC1O (configuration not stated) | > 100 | > 100 | > 100 µM | > 100 µM | > 100 µM | > 100 | > 100 µM | > 100 | 
12 | Cc1nnc(S(=O)(=O)c2ccc(N=Nc3c(N)nc(N)nc3N)cc2)s1 |  |  |  |  |  |  |  |  | TGI (MDA-N): > 100 µM
13 | O=C1OC(c2ccccc2)=N/C1=C/C=C/c1ccco1 |  |  | > 100 µM | > 100 µM | > 100 µM | > 100 | > 100 µM | > 100 | 
14 | O=C(O/N=C1/CCCC/C1=C\c1ccccc1)c1ccccc1 | > 100 | > 100 | > 100 µM | > 100 µM |  | > 100 | 31.3 µM |  | 
15 | COc1ccc(OC)c(NC(=O)C(=O)NNC(=O)c2sc(NNC(C)=O)nc2C)c1 |  |  | 81.6 µM | 85.3 µM | > 100 µM |  |  |  | 
16 | O=Cc1cc2c(cc1-c1c(C=O)ccc3c1OCO3)OCO2 |  |  |  |  |  |  |  |  | TGI (MDA-N): > 10 µM
17 | Cc1ccc(SC(C)/C=C/NNC2=NC(c3ccccc3)C(c3ccccc3)=NN2)cc1 (configuration not stated) | > 100 | > 100 | > 100 µM |  | > 100 µM | > 100 | > 100 µM |  | 
18 | CC(C)(C)[SiH]12(OC(C(F)(F)F)(C(F)(F)F)c3ccccc31)OC(C(F)(F)F)(C(F)(F)F)c1ccccc12 | 9.83 | 24.3 | 16.2 µM | 24.3 µM | 25.3 µM | 13.3 | 22.3 µM | 10.7 | 
19 | COC(=O)c1cc2c3ccccc3n(C(C)=O)c2cn1 | > 100 | > 100 | > 100 µM | 89.9 µM | > 100 µM | > 100 | > 100 µM | > 100 | 
20 | COC(=O)C1=C(c2ccc3c(c2)OCO3)O[C@H](c2cc(OC)c(OC)c(OC)c2)[C@H]1COC(C)=O | 60.9 | > 100 | 36.3 µM | 36.8 µM | > 100 µM | > 100 | 5.8 µM |  | 

Row | SMILES | TGI (HOP-18 NSCLC) [µM] | TGI (DMS 273 small cell lung) [µM] | TGI (LXFL 529 NSCLC) | TGI (XF 498 CNS) | TGI (SNB-78 CNS) | TGI (DLD-1 colon) [µM] | TGI (DMS 114 small cell lung) | TGI (RXF-631 renal) [µM] | further results
21 | CCCCc1c(OC)cc(O)c2c1C(=O)c1[nH]c(C(=O)O)c(O)c(=O)c1C2=O |  |  |  |  |  |  |  |  | TGI (MDA-N): > 100 µM
22 | COc1ccc(NC(=O)CCc2cc(-c3ccc(O)c(OC)c3)nc(NC#N)n2)cc1 | > 100 |  | > 100 µM |  | > 100 µM | > 100 | > 100 µM |  | 
23 | Cc1cc(Br)cc(C)c1NC(=O)C(=O)C(C(=O)c1ccc2ccccc2c1)C1OC(=O)c2ccccc21 (configuration not stated) | 41.3 | 86 | 22.3 µM | 18 µM |  | 34.2 | 41.8 µM | > 100 | 
24 | CSc1nc2c(nc(C)c(=O)n2C2OCC(OC(C)=O)C(OC(C)=O)C2OC(C)=O)c(=O)[nH]1 (configuration not stated) |  | > 100 | > 100 µM | > 100 µM |  | > 100 | > 100 µM |  | 
25 | O=C(Nc1nc2ncn(CCI)c2c(=O)[nH]1)c1ccccc1 | > 100 | > 100 | > 100 µM | > 61.2 µM | > 100 µM |  |  | > 100 | 
26 | O=c1c2ccccc2[se]n1-c1cccnc1 |  |  |  |  |  |  |  |  | TGI (MDA-N): 52.9 µM
27 | CCCCCCCCCC/C=C/CC(=O)SCCNC(=O)CCNC(=O)[C@@H](O)C(C)(C)COP(=O)(O)OP(=O)(O)OCC1OC(n2cnc3c(N)ncnc32)C(O)C1OP(=O)(O)O (some centres not stated) |  |  |  |  |  |  |  |  | TGI (MDA-N): > 10 µM
28 | O=[N+]([O-])c1nccn1CC(O)c1ccc(F)cc1 (configuration not stated) | > 100 | > 100 | > 100 µM | > 100 µM |  |  | > 100 µM | > 100 | 
29 | O=S(=O)([O-])c1ccc2c(c1)-c1nc-2nc2[n-]c(nc3nc(nc4[n-]c(n1)c1ccc(S(=O)(=O)[O-])cc41)-c1cc(S(=O)(=O)[O-])ccc1-3)c1ccc(S(=O)(=O)[O-])cc21.[Cu+2].[Na+] | > 100 | > 100 | > 100 µM | > 100 µM | > 100 µM | > 100 | > 100 µM | > 100 | GI50 (HOP-18 NSCLC): > 100 µM; GI50 (DMS 273 small cell lung): 6.07 µM; GI50 (LXFL 529 NSCLC): 26.5 µM; GI50 (XF 498 CNS): 68.3 µM; GI50 (SNB-78 CNS): > 100 µM; GI50 (DLD-1 colon): 7.65 µM; GI50 (DMS 114 small cell lung): 31.2 µM; GI50 (RXF-631 renal): > 86.8 µM; GI50 (MDA-N): > 100 µM; TGI (MDA-N): > 100 µM
30 | Cc1ccc(S(=O)(=O)NCC2CCCCC2=O)cc1 (configuration not stated) | > 100 | > 100 | > 100 µM | > 100 µM | > 100 µM |  | > 100 µM |  | 
31 | C=C(C=O)[C@@H]1C2OC(=O)C(=C)[C@@H]2CC(O)[C@@]1(C)CC (some centres not stated) | 41.3 |  | 8.23 µM |  | 24.9 µM | 9.7 | 36.8 µM | 37.7 | 
32 | O=C1CN=C(C[N+](=O)[O-])c2ccccc21 | > 100 | > 100 | > 100 µM |  | > 100 µM | > 100 | > 100 µM | > 100 | 
33 | CCCCOC(=O)C1C(c2ccc(Cl)cc2)NC(c2ccc(Cl)cc2)C(C(=O)OCCCC)S1(=O)=O (configuration not stated) | > 100 | > 100 | > 100 µM | > 100 µM |  | > 100 | > 100 µM |  | 
34 | CC(C)(C)OC(=O)NCC(=O)OCc1ccccc1 |  | > 100 | > 100 µM | > 100 µM | > 100 µM | > 100 | > 100 µM |  | 
35 | O=S(O)CCCCSSCC(O)C(O)CSSCCCCS(=O)O (configuration not stated) | > 100 | > 100 | 22.5 µM and 30.5 µM | 35.9 µM and 26 µM | 97.7 µM and > 100 µM | > 100 | 34 µM and 56.6 µM | > 100 | 
36 | O=C1c2ccccc2C(=O)C1(Cl)C1(S(=O)(=O)O)c2ccccc2-c2ccccc21 | > 100 | > 100 | > 100 µM | > 100 µM | > 100 µM | > 100 | > 100 µM |  | 
37 | CS(=O)(=O)N/N=C/CN1C(=O)c2ccccc2C1=O | > 100 | > 100 | > 100 µM | > 100 µM | > 100 µM | > 100 | > 100 µM |  | 
38 | CC(=O)O.CC(=O)O.CC(=O)O.CC(=O)O.CC(=O)O.CC(=O)O.O.[Ti].[Ti] | > 100 | > 100 | > 100 µM |  | > 100 µM | > 100 |  |  | GI50 (HOP-18 NSCLC): > 100 µM; GI50 (DMS 273 small cell lung): > 100 µM; GI50 (LXFL 529 NSCLC): > 100 µM; GI50 (SNB-78 CNS): > 100 µM; GI50 (DLD-1 colon): > 100 µM
39 | C=C(CCCCC)CN1CCCC1[C@@](C)(O)CC(=O)OCC (some centres not stated) | > 100 | > 100 | > 100 µM | > 100 µM | > 100 µM | > 100 | > 100 µM |  | 
40 | CNC(=S)NC1CCCCC1NC(=S)NC (configuration not stated) | > 100 | > 100 | > 100 µM | > 100 µM | > 100 µM | > 100 | > 100 µM | > 100 | 
